Laboratory results: ChEMBL document CHEMBL4765466, “Recent Advances in the Development of PD-L1 Modulators: Degraders, Downregulators, and Covalent Inhibitors” (J Med Chem, 2020)

Assay: Lipophilicity, log P of the compound
Type: physicochemical
Details: octanol/water

Q: Which logP does the source give for `COc1nc(OCc2cccc(-c3ccccc3)c2C)ccc1CNCCNC(C)=O` here?
A: The logP was 4.4.
